Reference: ChEMBL document CHEMBL1909046, “DrugMatrix in vitro pharmacology data”

What was measured:
[1] = molecular target: T1, Alpha-1A adrenergic receptor (Rattus norvegicus, UniProt P43140); test: DRUGMATRIX: Alpha-1A adrenergic receptor radioligand binding (ligand: prazosin); type: cell membranes, Wistar, Submaxillary gland, Membrane; details: Not Active = under 50% inhibition at 10 µM
T1 sequence (P43140 whole entry): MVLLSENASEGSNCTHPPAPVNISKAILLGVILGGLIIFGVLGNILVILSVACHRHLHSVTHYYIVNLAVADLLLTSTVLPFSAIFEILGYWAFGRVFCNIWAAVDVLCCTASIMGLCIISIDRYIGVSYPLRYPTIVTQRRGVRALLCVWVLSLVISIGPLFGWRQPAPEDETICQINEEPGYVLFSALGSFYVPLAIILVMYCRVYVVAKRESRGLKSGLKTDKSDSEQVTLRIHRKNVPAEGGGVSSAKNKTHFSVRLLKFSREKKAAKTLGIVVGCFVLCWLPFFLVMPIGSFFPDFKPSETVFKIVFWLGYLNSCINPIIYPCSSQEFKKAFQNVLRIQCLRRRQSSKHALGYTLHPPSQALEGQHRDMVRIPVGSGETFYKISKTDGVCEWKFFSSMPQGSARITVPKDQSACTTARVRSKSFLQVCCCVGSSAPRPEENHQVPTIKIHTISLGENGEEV

[2] = DRUGMATRIX: beta-Lactamase enzyme inhibition (substrate: Nitrocefin); design: species or system Bacillus cereus; details: Not Active = under 50% inhibition at 10 µM
[3] = DRUGMATRIX: GABAA, Chloride Channel, TBOB radioligand binding (ligand: [3H] TBOB); type: cell membranes, Rattus norvegicus, Wistar, Cerebral cortex, Membrane; details: Not Active = under 50% inhibition at 10 µM
[4] = molecular target: T2, Polyunsaturated fatty acid lipoxygenase ALOX15 (Oryctolagus cuniculus, UniProt P12530); test: biochemical; type: tissue-based, Reticulocytes; details: reticulocytes;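 further: inhibition of 15-lipoxygenase enzyme activity measured with linoleic acid as the substrate; in other assays of this panel Not Active means under 50% inhibition at 10 µM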
T2 sequence (P12530 whole entry): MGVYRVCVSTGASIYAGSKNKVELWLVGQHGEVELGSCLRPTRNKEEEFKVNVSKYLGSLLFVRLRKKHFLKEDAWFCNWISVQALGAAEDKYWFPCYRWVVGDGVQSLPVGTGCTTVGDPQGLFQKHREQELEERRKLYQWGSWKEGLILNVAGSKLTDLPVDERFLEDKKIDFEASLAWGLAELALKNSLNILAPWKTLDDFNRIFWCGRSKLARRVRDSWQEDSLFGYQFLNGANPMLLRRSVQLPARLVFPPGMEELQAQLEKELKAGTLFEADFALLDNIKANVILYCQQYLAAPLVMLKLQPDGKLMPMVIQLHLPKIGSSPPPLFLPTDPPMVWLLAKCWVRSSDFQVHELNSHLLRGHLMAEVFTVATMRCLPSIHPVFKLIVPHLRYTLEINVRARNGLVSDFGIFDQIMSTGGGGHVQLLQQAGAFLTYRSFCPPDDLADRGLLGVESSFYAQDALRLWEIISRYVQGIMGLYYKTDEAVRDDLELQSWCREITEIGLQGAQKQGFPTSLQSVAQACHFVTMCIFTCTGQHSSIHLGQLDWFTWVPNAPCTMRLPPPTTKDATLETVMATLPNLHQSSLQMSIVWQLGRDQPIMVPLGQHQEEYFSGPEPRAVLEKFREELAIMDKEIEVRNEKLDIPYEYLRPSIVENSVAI

[5] = molecular target: T3, Muscarinic acetylcholine receptor M5 (Homo sapiens, UniProt P08912); type: cell membranes, CHO-K1, Membrane; details: cho-k1; further: in other assays of this panel Not Active means under 50% inhibition at 10 µM
T3 sequence (P08912 whole entry): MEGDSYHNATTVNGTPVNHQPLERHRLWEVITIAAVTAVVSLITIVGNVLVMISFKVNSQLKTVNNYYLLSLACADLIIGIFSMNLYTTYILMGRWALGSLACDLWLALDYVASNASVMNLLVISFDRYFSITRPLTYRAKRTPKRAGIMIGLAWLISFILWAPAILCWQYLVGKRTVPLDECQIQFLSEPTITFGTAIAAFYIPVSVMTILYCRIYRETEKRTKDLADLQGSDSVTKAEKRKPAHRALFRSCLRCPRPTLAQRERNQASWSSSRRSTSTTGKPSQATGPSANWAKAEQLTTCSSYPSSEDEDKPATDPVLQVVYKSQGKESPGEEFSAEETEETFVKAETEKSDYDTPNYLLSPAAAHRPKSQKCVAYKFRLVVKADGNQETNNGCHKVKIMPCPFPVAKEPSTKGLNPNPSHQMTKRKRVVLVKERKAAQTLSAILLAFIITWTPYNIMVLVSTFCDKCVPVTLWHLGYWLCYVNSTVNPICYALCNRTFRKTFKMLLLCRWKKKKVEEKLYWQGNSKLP

[6] = molecular target: Mitogen-activated protein kinase 1 (Homo sapiens, UniProt P28482); test: DRUGMATRIX: Protein Serine/Threonine Kinase, ERK2 enzyme inhibition (substrate: Myelin Basic Protein); design: species or system Escherichia coli; details: Not Active = under 50% inhibition at 10 µM
Chain of Mitogen-activated protein kinase 1 (P28482 whole entry): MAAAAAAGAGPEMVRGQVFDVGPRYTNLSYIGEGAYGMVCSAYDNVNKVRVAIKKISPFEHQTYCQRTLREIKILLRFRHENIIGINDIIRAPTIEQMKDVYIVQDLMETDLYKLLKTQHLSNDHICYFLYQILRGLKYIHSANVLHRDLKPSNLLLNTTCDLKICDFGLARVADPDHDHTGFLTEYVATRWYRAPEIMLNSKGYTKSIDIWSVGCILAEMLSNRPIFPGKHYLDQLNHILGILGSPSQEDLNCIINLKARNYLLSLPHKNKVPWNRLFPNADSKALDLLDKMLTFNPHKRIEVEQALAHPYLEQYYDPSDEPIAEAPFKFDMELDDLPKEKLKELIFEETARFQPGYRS

| Compound | IC50 [1] | IC50 [2] | Ki [2] | IC50 [3] | Ki [3] | IC50 [4] | IC50 [5] | IC50 [6] | Ki [1] | Ki [4] | Ki [5] | Ki [6] | IC50 ([3]; read-out: IC50) [nM] | Ki ([3]; read-out: Ki) [nM] |
| --- | --- | --- | --- | --- | --- | --- | --- | --- | --- | --- | --- | --- | --- | --- |
| CCN1C[C@]2(COC)[C@H](O)C[C@H](OC)[C@@]34[C@@H]5C[C@@]6(O)[C@H](OC(=O)c7ccccc7)[C@@H]5[C@@](OC(C)=O)([C@@H]([C@H](OC)[C@H]23)[C@@H]14)[C@@H](O)[C@@H]6OC [ACONITINE] | Not Active | Not Active | Not Active | Not Active | Not Active | Not Active | Not Active | Not Active | – | – | – | – | – | – |
| CC(N)Cc1c[nH]c2ccc(OCc3cccs3)cc12 (stereo not given) [BW-723C86] | Not Active | Not Active | Not Active | Not Active | Not Active | Not Active | Not Active | Not Active | – | – | – | – | – | – |
| C=C(Cl)Cl [1,1-DICHLOROETHENE] | Not Active | Not Active | Not Active | Not Active | Not Active | Not Active | Not Active | Not Active | – | – | – | – | – | – |
| Nc1ccc(Cc2ccc(N)cc2)cc1 | Not Active | Not Active | Not Active | Not Active | Not Active | Not Active | Not Active | Not Active | – | – | – | – | – | – |
| Nc1nc(N)c2nc(CNc3ccc(C(=O)N[C@@H](CCC(=O)O)C(=O)O)cc3)cnc2n1 [AMINOPTERIN] | Not Active | Not Active | Not Active | Not Active | Not Active | Not Active | Not Active | Not Active | – | – | – | – | – | – |
| CCN(CCO)CCCC(C)Nc1ccnc2cc(Cl)ccc12 (stereo not given) [HYDROXYCHLOROQUINE] | Not Active | Not Active | Not Active | Not Active | Not Active | Not Active | Not Active | Not Active | – | – | – | – | – | – |
| COPPER(II) OXIDE | Not Active | Not Active | Not Active | Not Active | Not Active | Not Active | Not Active | Not Active | Not Active | Not Active | Not Active | Not Active | – | – |
| CN(CCOc1ccc(C[C@H](Nc2ccccc2C(=O)c2ccccc2)C(=O)O)cc1)c1ccccn1 | Not Active | Not Active | Not Active | Not Active | Not Active | Not Active | Not Active | Not Active | – | – | – | – | – | – |
| COc1cc([C@@H]2c3cc4c(cc3[C@H](O)[C@H]3COC(=O)[C@H]23)OCO4)cc(OC)c1OC [PODOFILOX] | Not Active | Not Active | Not Active | Not Active | Not Active | Not Active | Not Active | Not Active | – | – | – | – | – | – |
| ClC1=C(Cl)[C@]2(Cl)[C@@H]3[C@@H]4C[C@@H]([C@H]5O[C@@H]45)[C@@H]3[C@@]1(Cl)C2(Cl)Cl [DIELDRIN] | Not Active | Not Active | Not Active | – | – | Not Active | Not Active | Not Active | – | – | – | – | 335 | 300 |
| CCN1CCN(c2cc3c(cc2F)c(=O)c(C(=O)O)cn3C2CC2)CC1 [ENROFLOXACIN] | Not Active | Not Active | Not Active | Not Active | Not Active | Not Active | Not Active | Not Active | – | – | – | – | – | – |
| C[C@H]1C[C@H]2[C@@H]3CCC4=CC(=O)C=C[C@]4(C)[C@@]3(F)[C@@H](O)C[C@]2(C)[C@@]1(O)C(=O)CO [BETAMETHASONE] | Not Active | Not Active | Not Active | Not Active | Not Active | Not Active | Not Active | Not Active | – | – | – | – | – | – |
